Assay: surface area of crystals formed with and without sonication
Type: physicochemical
Procedure: The method can also include a step of forming a premix, including the substeps of adding, after the step of dissolving, gluconic acid to provide an almost 1:1 premix mixture of cobalt acetate and cobalt gluconate compounds, and then sonicating the premix mixture. The premix remained in solution at 15° C. for over ten days. When additional gluconic acid (1.1 eq of total gluconic acid to acetic acid) was added, and gently mixed, within a half hour precipitation of very fine cobalt gluconate crystals occurred.

With cobalt gluconate the “surface area relative to that observed with sonication” value was “less than 20 times”.

Reference: patent US11753430B2, “Method of making cobalt compounds for feed supplements” (Vitalix, Inc., priority 2021, dated 2023)
